# Data from PMC12340956, “Tranylcypromine-Based LSD1 Inhibitors as Useful Agents to Reduce Viability of” (ACS Infectious Diseases, 2025).
# Where two headings read alike, the source gives them in different places.
# Columns and labels:
# [1] = system: newly transformed schistosomula (NTS); assay: NTS viability phenotypic screening, 72 h
# Description: For NTS and adult worms, transparent flat-bottom 96- and 24-well plates were used, respectively (Sarstedt, Switzerland). For juvenile worms, 48-well plates were used with 3–6 worms per plate and RPMI medium with 5% FCS and 1% penicillin/streptomycin. Compounds were initially tested at 20 and 10 μM in triplicate on NTS and repeated once; each well contained 30–40 NTS. Phenotypic reference points such as motility, morphology, and granularity were used to score incubated parasites’ overall viability (scores from 0 to 3). […] Identified hits from the NTS screening were tested on adult worms. […] The experiment was conducted in duplicate and repeated; standard deviations were calculated from two wells. […] For all in vitro assays, negative controls (DMSO at the highest tested concentration) were included.
# adult worms [2] = assay: Adult worm viability phenotypic assay, 72 h; details: Schistosoma mansoni, read-out: IC50 (adult worm viability)
# adult worms [3] = assay: Pairing and egg laying of adult worms; assay type: cell-based, Schistosoma mansoni; details: for eggs' number: 20 μM
# Description: Selected compounds 2, 15, 18, and 19 were tested on adult worms to evaluate their effects on pairing and egg laying.
# [4] = molecular target: T1, human LSD1-CoREST complex (Homo sapiens, UniProt O60341); assay: HRP-coupled LSD1 inhibition assay; assay type: biochemical; details: 10 min preincubation, read-out: IC50 (hLSD1 direct inhibition)
# T1 construct: made in house
# Description: Protein expression, thermal stability, and inhibition of human LSD1-CoREST were performed using established protocols. […] The reaction was initiated by adding an equal volume of the substrate solution to the enzyme–inhibitor mixture, and resorufin fluorescence (excitation at 530–570 nm and emission at 580–590 nm) was detected with a Clariostar plate reader.
# NTS = assay: Speed-of-action assay in NTS; assay type: cell-based, Schistosoma mansoni; details: for Percentage of effect: NTS; for IC50: Schistosoma mansoni, read-out: IC50 (speed of action, NTS)
# Description: (§1) To better characterize a selection of our LSD1i in vitro, we assessed the onset of their action, defined as the time required for an observable antischistosomal effect. […] For detailed percentages of activity at each time point, refer to the Supporting Information (Tables S2 and S3 in Supporting Information).
# [5] = MTT cytotoxicity in RPE cells; assay type: cell-based; details: human, retinal pigment epithelial (RPE) cells
# Description: (§2) The MTT method was used to evaluate cell viability after 72 h of treatment.
# (§3) Human commercial lung diploid fibroblasts (MRC-5), and diploid retinal epithelium cells (RPE) were obtained from the American Type Culture Collection (ATCC) and kindly provided by Dr Francesca Degrassi (CNR IBPM) and maintained in minimal essential medium or DMEM-F12 medium supplemented with fetal calf serum, antibiotics, and nonessential amino acids. Cells were grown at 37 °C, in a humidified atmosphere, with 5% CO2. For experiments, cells were seeded in 200 μL of complete in each well of a 96-well microtiter plate. After 24 h, compounds were added at 5, 10, 25, and 50 μM for 72 h in sextuplicate. MTT was added (0.5 mg/mL), incubated for 4 h at 37 °C, and dissolved in 200 μL of isopropyl alcohol. Absorbance was measured at 570 nm (ELISA reader, DASIT), and cell viability was calculated as viability=(ODoftreatedcells/ODofcontrolcells)×100
# [6] = system: S. mansoni juvenile forms; assay: Speed-of-action assay in juvenile forms; assay type: cell-based, Schistosoma mansoni; details: for IC50: Schistosoma mansoni, read-out: IC50 (speed of action, juvenile forms); for Percentage of effect: juvenile forms
# Description: as §1
# [7] = molecular target: T1, human LSD1-CoREST complex; assay: ThermoFAD thermal stability assay; assay type: binding; details: for ΔTm: LSD1-CoREST thermal stability
# Description: Compounds 14–22 were tested against the human LSD1-CoREST complex to determine their inhibitory activity. […] ThermoFAD assays were then performed to assess the impact of 14–22 on the thermal stability (ΔT m values, Table ) of the LSD1-CoREST complex. The most significant shifts in Tm values corresponded to the strongest binders. […] Compound 22 was not tested, considering its previous negative results.
# Protein expression, thermal stability, and inhibition of human LSD1-CoREST were performed using established protocols. […] LSD1-CoREST (0.4 μM) was preincubated with the inhibitor at 25 °C for 10 min in the presence of 5% DMSO. The reaction was initiated by adding an equal volume of the substrate solution to the enzyme–inhibitor mixture, and resorufin fluorescence (excitation at 530–570 nm and emission at 580–590 nm) was detected with a Clariostar plate reader.
# [8] = MTT cytotoxicity in MRC-5 cells; assay type: cell-based; details: human, MRC-5 lung diploid fibroblast cells
# Description: as §2, §3
# [9] = molecular target: T1, human LSD1-CoREST complex; assay: Spectrophotometric analysis of flavin cofactor bleaching; assay type: biochemical
# [10] = 5 μM, read-out: percentage of viability, 72 h
# [11] = 10 μM, read-out: percentage of viability, 72 h
# [12] = 25 μM, read-out: percentage of viability, 72 h
# [13] = 50 μM, read-out: percentage of viability, 72 h
# [14] = read-out: IC50 (cell viability)
smiles,measurement,setting,value
"Cl.NC1CC1c1ccc(NC(=O)c2ccc(C#CC3CC3)cc2)cc1 (stereo not drawn) [Compound 19, N-(4-(2-Aminocyclopropyl)phenyl)-4-(cyclopropylethynyl)benzamide Hydrochloride]","Percentage of reduction of NTS viability, 72 h",[1]; 1 μM,22.6 ± 1.9%
same,"Percentage of reduction of NTS viability, 72 h",[1]; 10 μM,100 ± 0.0%
same,"Percentage of reduction of NTS viability, 72 h",[1]; 20 μM,100 ± 0.0%
same,IC50,"[1]; Schistosoma mansoni, read-out: IC50 (NTS viability)",1.27 µM
same,IC50,adult worms [2],> 10 µM
same,eggs' number,adult worms [3]; 4 h,0
same,eggs' number,adult worms [3]; 8 h,0
same,eggs' number,adult worms [3]; 24 h,0
same,eggs' number,adult worms [3]; 48 h,0
same,eggs' number,adult worms [3]; 72 h,5
same,effect on worm pairing,adult worms [3]; adult worms,no impact on worm pairing
same,IC50,[4],0.02 ± 0.001 µM
same,Percentage of effect,"NTS; 4 h, 10 μM",30.77%
same,Percentage of effect,"NTS; 4 h, 20 μM",38.46%
same,Percentage of effect,"NTS; 24 h, 10 μM",48.21%
same,Percentage of effect,"NTS; 24 h, 20 μM",78.57%
same,Percentage of effect,"NTS; 48 h, 10 μM",87.76%
same,Percentage of effect,"NTS; 48 h, 20 μM",100%
same,Percentage of effect,"NTS; 72 h, 10 μM",93.88%
same,Percentage of effect,"NTS; 72 h, 20 μM",100%
same,IC50,NTS; 4 h,> 20 µM
same,IC50,NTS; 24 h,10.4 µM
same,IC50,NTS; 48 h,8.3 µM
same,IC50,NTS; 72 h,7.5 µM
same,"viability at 72 h, 5 µM",[5]; [10],92 ± 26%
same,"viability at 72 h, 10 µM",[5]; [11],89 ± 35%
same,"viability at 72 h, 25 µM",[5]; [12],98 ± 21%
same,"viability at 72 h, 50 µM",[5]; [13],103 ± 20%
same,IC50 at 72 h,[5]; [14],> 100 µM
same,IC50,[6]; 4 h,> 20 µM
same,IC50,[6]; 24 h,> 20 µM
same,IC50,[6]; 48 h,> 20 µM
same,IC50,[6]; 72 h,2.7 µM
same,Percentage of effect,"[6]; 4 h, 1 μM",20%
same,Percentage of effect,"[6]; 4 h, 10 μM",20%
same,Percentage of effect,"[6]; 4 h, 20 μM",41.82%
same,Percentage of effect,"[6]; 24 h, 1 μM",27.59%
same,Percentage of effect,"[6]; 24 h, 10 μM",34.48%
same,Percentage of effect,"[6]; 24 h, 20 μM",40.38%
same,Percentage of effect,"[6]; 48 h, 1 μM",36.54%
same,Percentage of effect,"[6]; 48 h, 10 μM",46.15%
same,Percentage of effect,"[6]; 48 h, 20 μM",47.92%
same,Percentage of effect,"[6]; 72 h, 1 μM",43.03%
same,Percentage of effect,"[6]; 72 h, 10 μM",46.73%
same,Percentage of effect,"[6]; 72 h, 20 μM",81.25%
same,ΔTm,[7],+8 °C
same,"viability at 72 h, 5 µM",[8]; [10],98 ± 20%
same,"viability at 72 h, 10 µM",[8]; [11],88 ± 18%
same,"viability at 72 h, 25 µM",[8]; [12],85 ± 8%
same,"viability at 72 h, 50 µM",[8]; [13],85 ± 35%
same,IC50 at 72 h,[8]; [14],> 100 µM
"Cl.NC1CC1c1cccc(NC(=O)c2ccc(C#CC3CC3)cc2)c1 (stereo not drawn) [Compound 22, N-(3-(2-Aminocyclopropyl)phenyl)-4-(cyclopropylethynyl)benzamide Hydrochloride]",bleaching of the flavin cofactor,[9],no bleaching
same,thermal shift compared to the control,[7],no thermal shift
same,ΔTm,[7],0 °C
